Assay results: patent publication US20230203081A1, “LINCOSAMIDE ANTIBIOTICS AND USES THEREOF” (President and Fellows of Harvard College, priority 2020, published 2023)
≈ marks a conversion by molar mass, not a printed value.

How the values were obtained:
Experiment in all cases: microbe, parasite or virus in culture
Format in all cases: cell-based
[1] = tested on: broad panel of different clinical isolates
How it was run: (§1)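 Inoculum for broth microdilution was 5×10^5 CFU/mL final, prepared from overnight 35° C blood-agar subcultures (separate handling for streptococcal and anaerobic strains); MICs read by CLSI broth microdilution or agar dilution.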

E. coli armA = conditions: Escherichia coli, E. coli HAV#056; Clinical, armA
How it was run: as §1

E. coli ΔTolC = conditions: Escherichia coli, E. coli HAV#038; ΔTolC
How it was run: as §1

C[C@H]1COc2c(N3CCN(C)CC3)c(F)cc3c(=O)c(C(=O)O)cn1c23 [Levofloxacin] gave an MIC ([1]; Enterococcus faecium, E. faecium HAV#329, Clinical) of 128 µg/mL (≈ 354 µM), an MIC ([1]; Enterococcus faecium, VRE, E. faecium HAV#319, Line R & Vanco R) of 128 µg/mL (≈ 354 µM) and an MIC ([1]; Enterococcus faecium, VRE, E. faecium HAV#320, Clinical) of 4 µg/mL (≈ 11.1 µM). It also gave an MIC ([1]; Escherichia coli, E. coli HAV#501, Clinical) of 32 µg/mL (≈ 88.6 µM), an MIC ([1]; Escherichia coli, E. coli HAV#503, Clinical) of 64 µg/mL (≈ 177 µM) and an MIC ([1]; Escherichia coli, E. coli HAV#511, Clinical) of 4 µg/mL (≈ 11.1 µM). The MIC ([1]; Escherichia coli, E. coli HAV#512, Clinical) was < 0.06 µg/mL, the MIC ([1]; Escherichia coli, E. coli HAV#513, Clinical) was 2 µg/mL (≈ 5.53 µM) and the MIC ([1]; Escherichia coli, E. coli HAV#514, Clinical) was < 0.06 µg/mL. It also gave an MIC ([1]; Escherichia coli, E. coli HAV#516, ESBL-producing) of 16 µg/mL (≈ 44.3 µM), an MIC ([1]; Haemophilus influenzae, ATCC9007, H. influenzae HAV#376, ATCC-9007) of 0.03 µg/mL (≈ 0.083 µM) and an MIC ([1]; Klebsiella pneumoniae, K. pneumoniae HAV#041, Clinical, KPC) of 64 µg/mL (≈ 177 µM). For the same compound, the MIC ([1]; Klebsiella pneumoniae, K. pneumoniae HAV#404, Clinical) was 1 µg/mL (≈ 2.77 µM), the MIC ([1]; Klebsiella pneumoniae, K. pneumoniae HAV#405, Clinical) was 1 µg/mL (≈ 2.77 µM) and the MIC ([1]; Klebsiella pneumoniae, K. pneumoniae HAV#406, Clinical) was 0.125 µg/mL (≈ 0.346 µM). For the same compound, the MIC ([1]; Klebsiella pneumoniae, K. pneumoniae HAV#407, Clinical) was > 128 µg/mL, the MIC ([1]; Klebsiella pneumoniae, K. pneumoniae HAV#408, Clinical) was 1 µg/mL (≈ 2.77 µM) and the MIC ([1]; Klebsiella pneumoniae, K. pneumoniae HAV#409, ESBL-producing) was 0.5 µg/mL (≈ 1.38 µM). For the same compound, the MIC ([1]; Staphylococcus aureus, MRSA, S. aureus HAV#0107, MRSA Col(Colindale, England)) was 1 µg/mL (≈ 2.77 µM), the MIC ([1]; Staphylococcus aureus, MRSA, S. aureus HAV#218, Line R) was 0.25 µg/mL (≈ 0.692 µM) and the MIC ([1]; Staphylococcus aureus, MRSA, S. aureus HAV#220, Line R) was 64 µg/mL (≈ 177 µM). For the same compound, the MIC ([1]; Staphylococcus aureus, MSSA, S. aureus HAV#219, Line R) was 0.25 µg/mL (≈ 0.692 µM), the MIC ([1]; Staphylococcus aureus, S. aureus HAV#051, mecA, norA, spcl, ermA, aad1, aac6′-aph2″) was 0.5 µg/mL (≈ 1.38 µM) and the MIC ([1]; Staphylococcus aureus, S. aureus HAV#052, mecA, norA, fosB, blaZ) was 1 µg/mL (≈ 2.77 µM). For the same compound, the MIC ([1]; Staphylococcus aureus, S. aureus HAV#053 mecA, norA, fosB) was 0.5 µg/mL (≈ 1.38 µM), the MIC ([1]; Staphylococcus aureus, S. aureus HAV#054, mecA, norA, spcl, aad1, fosB, ermA, aac6′-aph2″, blaZ) was 32 µg/mL (≈ 88.6 µM) and the MIC ([1]; Staphylococcus aureus, S. aureus HAV#212, Clinical) was 0.25 µg/mL (≈ 0.692 µM). It also gave an MIC ([1]; Staphylococcus aureus, S. aureus HAV#213, Clinical) of 2 µg/mL (≈ 5.53 µM), an MIC ([1]; Staphylococcus aureus, S. aureus HAV#214, Clinical) of 0.25 µg/mL (≈ 0.692 µM) and an MIC ([1]; Staphylococcus aureus, S. aureus HAV#215, Clinical) of 0.25 µg/mL (≈ 0.692 µM). For the same compound, the MIC ([1]; Staphylococcus aureus, S. aureus HAV#217, cfr) was 2 µg/mL (≈ 5.53 µM), the MIC ([1]; Staphylococcus aureus, VISA, S. aureus HAV#203, Clinical (VISA)) was 8 µg/mL (≈ 22.1 µM) and the MIC ([1]; Staphylococcus epidermidis, S. epidermidis HAV# 275 Clinical, cfr) was 16 µg/mL (≈ 44.3 µM). The MIC ([1]; Staphylococcus epidermidis, S. epidermidis HAV# 276, cfr) was 128 µg/mL (≈ 354 µM), the MIC ([1]; Staphylococcus epidermidis, S. epidermidis HAV#277, Line R) was > 128 µg/mL and the MIC ([1]; Staphylococcus epidermidis, S. epidermidis HAV#278 Line R) was 16 µg/mL (≈ 44.3 µM). For the same compound, the MIC ([1]; Staphylococcus epidermidis, S. epidermidis HAV#279, Line R) was 8 µg/mL (≈ 22.1 µM), the MIC ([1]; Staphylococcus haemolyticus, S. haemolyticus 5052, Line R & Methicillin R) was 8 µg/mL (≈ 22.1 µM) and the MIC ([1]; Streptococcus pneumoniae, ATCC700673, S. pneumoniae HAV#352, ATCC 700673, MDR) was 0.5 µg/mL (≈ 1.38 µM). For the same compound, the MIC ([1]; Streptococcus pneumoniae, ATCCBAA255, S. pneumoniae HAV#354, ATCC-BAA-255) was 0.25 µg/mL (≈ 0.692 µM), the MIC ([1]; Streptococcus pneumoniae, ATCCBAA334, S. pneumoniae HAV#353, ATCC-BAA-334) was 0.5 µg/mL (≈ 1.38 µM) and the MIC ([1]; Streptococcus pneumoniae, S. pneumoniae HAV#356, Clinical) was 0.25 µg/mL (≈ 0.692 µM). For the same compound, the MIC ([1]; Streptococcus pneumoniae, S. pneumoniae HAV#358, Clinical) was 0.25 µg/mL (≈ 0.692 µM), the MIC (E. coli armA) was ≤ 0.06 µg/mL and the MIC (E. coli ΔTolC) was ≤ 0.06 µg/mL.
